Entries after “also recorded” stand apart in the source; their conditions may differ.
Columns and labels:
[1] = rats; cited from earlier work
[2] = test system: Mold mite Tyrophagus putrescentiae; assay: Mold mite survivorship in diet with Mirenat-G (LAE in glycerin), four weeks (Example 3); assay type: in vivo; conditions: for Mold mites number: four weeks after infestation with 25 individuals, n = 15, means ± SEM
Method: This example determines the effect of three different concentrations of LAE on the mortality, reproduction and immature development of mold mite Tyrophagus putrescentiae. The dose level tested were 0.125%, 0.25% and 0.5% of LAE.
(§1) Mixed developmental stages of the Mold mite, Tyrophagus putrescentiae, were used in the experiments. The individuals of this specie came from IRTA, Crop Protection Department and had been maintained on standard diets at 25±1° C., 70±10% r.h. and a photoperiod of 16:8 L:D. Experiments were conducted in a climatic chamber at the same environmental conditions.
The food additive Mirenat-G (10.5% LAE in glycerin) was supplied by the company VEDEQSA and was uniformly mixed with a mix of bran, brewer's yeast for the Mold mite. It was tested at the following dosages of 0.125%, 0.25% and 0.5% LAE. A control treatment with no food additive was included for reference. Fifteen replications per treatment were prepared.
(§2) For the mold mite, the experimental arenas were ventilated plastic cages (100 ml) containing 15 g of a mixed diet (bran, brewer's yeast and glycerin). Mites were added to arenas in numbers of 25 individuals. Plastic cages were isolated in hermetic boxes containing a solution of glycerine in order to maintain the relative humidity at 75%.
Four weeks after T. putrescentiae infestation the total number of individuals present in each replication was counted.
The mean number of individuals were compared between treatments with or without the additive for the pest specie using a one-way analysis of variance (ANOVA) procedure and means were separated by Tukey test (PROC GLM; SAS Institute 2000).

[3] = test system: Alcaligenes faecalis ATCC 8750; conditions: Gram − Bacteria; cited from earlier work
[4] = test system: Chaetonium globosum ATCC 6205; conditions: Fungi; cited from earlier work
[5] = test system: Rhodotorula rubra CECT 1158; conditions: Yeast; cited from earlier work
[6] = test system: Arthrobacter oxydans ATCC 8010; conditions: Gram + Bacteria; cited from earlier work
[7] = test system: Saccharomyces cerevisiae ATCC 9763; conditions: Yeast; cited from earlier work
[8] = test system: Bacillus subtilis ATCC 6633; conditions: Gram + Bacteria; cited from earlier work
[9] = test system: Escherichia coli ATCC 8739; conditions: Gram − Bacteria; cited from earlier work
[10] = test system: Aspergillus niger ATCC14604; conditions: Fungi; cited from earlier work
[11] = test system: Bordetella bronchiseptica ATCC 4617; conditions: Gram − Bacteria; cited from earlier work
[12] = test system: Enterobacter aerogenes CECT 689; conditions: Gram − Bacteria; cited from earlier work
[13] = test system: Penicillium funiculosum CECT 2914; conditions: Fungi; cited from earlier work
[14] = test system: Bacillus cereus var mycoide ATCC 11778; conditions: Gram + Bacteria; cited from earlier work
[15] = test system: Aureobasidium pullulans ATCC 9348; conditions: Fungi; cited from earlier work
mite colonies = assay: Mite colonies on cured ham treated with LAE on the surface (Example 4); assay type: in vivo
Method: A dose level of 200 ppm of LAE (or 0.02% of LAE) was added onto the surface of a ham at the beginning of its curing process. The results were compared with a control sample that consisted on a cured ham without being treated with LAE. All hams (control and treated with LAE) were cured during a period of 6 months.
After 6 months, when the curing process was finished it was observed that 85% of ham not treated with LAE (control samples) had mite colonies alive onto the surfaces of hams. In contrast, only 30% of hams treated with LAE had mite colonies alive onto their surface.
Before delivering the hams to the client, the producer extracted the bone in order to slice the ham. It was observed that 25% of ham non-treated with LAE (control) contained mite colonies alive inside the ham. The presence of mite colonies produced the formation of holes between 2 to 3 cm of diameter. These holes in the ham looked like a putrefacted ham.

[16] = test system: Staphylococcus aureus ATCC 6538; conditions: Gram + Bacteria; cited from earlier work
[17] = animals and humans; cited from earlier work
[18] = test system: Mold mite Tyrophagus putrescentiae; assay: Mold mite survivorship in rearing diet with LAE, six weeks (Example 2); assay type: in vivo; conditions: 1% LAE in diet
Method: This example determines the effect of LAE on the mortality, reproduction and immature development of Mold mite Tyrophagus putrescentiae.
as §1, with “the species” for “this specie”
The food additive (LAE) was supplied by the company VEDEQSA as a fine sifted dust, and was uniformly mixed with a mix of bran, brewer's yeast and glycerin for the Mold mite. A high dosage of 1% LAE was tested. A control treatment with no food additive was included for reference. Fifteen replications per treatment were prepared.
as §2, with “giycerine).” for “glycerin).”
Six weeks after T. putrescentiae infestation the total number of individuals present in each replication was counted. […]

[19] = test system: Citrobacter freundii ATCC 22636; conditions: Gram − Bacteria; cited from earlier work
[20] = test system: Hyalomma marginatum rufipes; assay: Mortality of adult ticks in vials with LAE in a food carrier (Example 1); conditions: 24 h contact
Method: This example determines the activity of LAE against a type of tick, Hyalomma marginatum rufipes.
During 3 weeks adult ticks of Hyalomma marginatum rufipes were unfed. 15 unsexed ticks were introduced in each vial of treatment. All vials were closed with a mesh and plastic bands in order to avoid that ticks could escape from the vials. The mortality of ticks was studied 24 h later and compared from the different treatments performed.
Two types of treatment were performed and then compared with the control. One treatment consisted in a dispersion of 0.2% LAE in a food carrier. The other treatment was 1.0% LAE in a food carrier. The control was a vial that contained the ticks without LAE. For each treatment and control samples 5 replicates were carried out.
After 24 hours of contact of ticks with LAE in the vials, the percentage of mortality of ticks was determined (Table 2).

[21] = test system: Candida albicans ATCC 10231; conditions: Yeast; cited from earlier work
[22] = test system: Micrococcus luteus ATCC 9631; conditions: Gram + Bacteria; cited from earlier work
[23] = test system: Penicillium chrysogenum CECT 2802; conditions: Fungi; cited from earlier work
[24] = test system: Pseudomonas aeruginosa ATCC 9027; conditions: Gram − Bacteria; cited from earlier work
[25] = test system: Listeria monocytogenes ATCC 7644; conditions: Gram + Bacteria; cited from earlier work
[26] = test system: Lactobacillus delbrueckii ssp lactis CECT 372; conditions: Gram + Bacteria; cited from earlier work
[27] = test system: Mycobacterium phlei ATCC 41423; conditions: listed under Gram − Bacteria; cited from earlier work
[28] = test system: Serratia marcenses CECT 274; conditions: Gram − Bacteria; cited from earlier work
[29] = test system: Clostridium perfringens ATCC 77454; conditions: Gram + Bacteria; cited from earlier work
Escherichia coli 0157H7 = conditions: Gram − Bacteria; cited from earlier work
[30] = test system: Leuconostoc mesenteroides CETC 912; conditions: Gram + Bacteria; cited from earlier work
[31] = test system: Proteus mirabilis CECT 170; conditions: Gram − Bacteria; cited from earlier work
[32] = test system: Salmonella typhimurium ATCC16028; conditions: Gram − Bacteria; cited from earlier work
[33] = test system: Klebsiella pneumoniae var pneumoniae CECT 178; conditions: Gram − Bacteria; cited from earlier work
[34] = test system: Gliocadium virens ATCC 4645; conditions: Fungi; cited from earlier work

In the case of `CCCCCCCCCCCC(=O)N[C@@H](CCCN=C(N)N)C(=O)OCC.Cl` [LAE, ethyl ester of the lauramide of the arginine monohydrochloride], the absorption and metabolisation [1] is given as “fast absorption and metabolisation into naturally-occurring amino acids and the fatty acid lauric acid”, the Mold mites number ([2]; 0.125% LAE (as Mirenat-G) in diet) is given as 20.9 ± 9.77 and the Mold mites number ([2]; 0.25% LAE (as Mirenat-G) in diet) is given as 13.17 ± 3.70. For the same molecule, the Mold mites number ([2]; 0.5% LAE (as Mirenat-G) in diet) was 6.7 ± 1.49, the “reduction in the mean number of individuals present” value ([2]; 0.5% of LAE, after 4-week infestation) was 70% and the M.I.C. [3] was 64 ppm. The M.I.C. [4] was 16 ppm, the M.I.C. [5] was 16 ppm and the M.I.C. [6] was 64 ppm. For the same molecule, the M.I.C. [7] was 32 ppm, the M.I.C. [8] was 16 ppm and the M.I.C. [9] was 32 ppm. The M.I.C. [10] was 32 ppm, the M.I.C. [11] was 128 ppm and the M.I.C. [12] was 32 ppm. The M.I.C. [13] was 16 ppm, the M.I.C. [14] was 32 ppm and the M.I.C. [15] was 16 ppm. The “hams with mite colonies alive onto their surface” value (mite colonies; 200 ppm (0.02%) LAE on ham surface at start of curing, after 6 months curing) was 30%, the “mite colonies alive inside the ham” value (mite colonies; 200 ppm (0.02%) LAE on ham surface, sliced ham after 6 months curing) was “no presence of mite colonies alive inside the ham” and the M.I.C. [16] was 32 ppm. The toxicological studies [17] was “completely harmless to animals and humans”, the Mold mites number ([18]; six weeks after infestation with 25 individuals, n = 15, mean ± SEM) was 0.1 ± 0.1^ and the “survivorship of the Mold mite in the standard rearing diet” value ([18]; six weeks after infestation, monohydrochloride) was “did not survive; also recorded: very low”. For the same molecule, the M.I.C. [19] was 64 ppm, the Mortality ([20]; 0.2% LAE in a food carrier, n = 5) was 6.7% and the Mortality ([20]; 1.0% LAE in a food carrier, n = 5, monohydrochloride) was 38.7%. For the same molecule, the M.I.C. [21] was 16 ppm, the M.I.C. [22] was 128 ppm and the M.I.C. [23] was 128 ppm. The M.I.C. [24] was 64 ppm, the M.I.C. [25] was 10 ppm and the M.I.C. [26] was 16 ppm. The M.I.C. [27] was 2 ppm, the M.I.C. [28] was 32 ppm and the M.I.C. [29] was 16 ppm. The M.I.C. (Escherichia coli 0157H7) was 20 ppm, the M.I.C. [30] was 32 ppm and the M.I.C. [31] was 32 ppm. For the same molecule, the M.I.C. [32] was 32 ppm, the M.I.C. [33] was 32 ppm and the M.I.C. [34] was 32 ppm.

From US20110275714A1, “Use Of Cationic Surfactants As Acaricidal Agents” (priority 2009, published 2011)
